PubChem BioAssay AID256 (DTP/NCI, 2004)
“And” between values parts separate entries of the source, which are not always exact repeats. Identical values can stand only once. Inconclusive results and toxic doses are left out.

System: CD2F1 mice, L1210 leukemia ip, survival T/C
Assay: NCI In Vivo Anticancer Drug Screen. Data for tumor model L1210 Leukemia (intraperitoneal) in CD2F1 (CDF1) mice
Details: higher = longer survival
In short: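 Vehicle-treated tumor-bearing mice served as controls (C) for compound-treated mice (T). Reported figure is T divided by C.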

[1] = endpoint: mean survival time, dose: 100.0 mg/kg/injection, schedule: Q04DX003 (ip), vehicle: saline with Tween-80
[2] = endpoint: mean survival time, dose: 200.0 mg/kg/injection, schedule: Q04DX003 (ip), vehicle: saline with Tween-80
[3] = endpoint: mean survival time, dose: 400.0 mg/kg/injection, schedule: Q04DX003 (ip), vehicle: saline with Tween-80
[4] = endpoint: mean survival time, dose: 100.0 mg/kg/injection, schedule: Q01DX009 (ip), vehicle: saline with Tween-80
[5] = endpoint: mean survival time, dose: 200.0 mg/kg/injection, schedule: Q01DX009 (ip), vehicle: saline with Tween-80
[6] = endpoint: mean survival time, dose: 400.0 mg/kg/injection, schedule: Q01DX009 (ip), vehicle: saline with Tween-80
[7] = endpoint: mean survival time, dose: 12.5 mg/kg/injection, schedule: Q01DX009 (ip), vehicle: saline with Tween-80
[8] = endpoint: mean survival time, dose: 6.25 mg/kg/injection, schedule: Q01DX009 (ip), vehicle: saline with Tween-80

## C/C(=N/O)c1ccc(O)cc1
[1]
  T/C: 90 % of control
[2]
  T/C: 100 % of control
[3]
  T/C: 94 % of control

## N#CCc1ccccc1-c1ccccc1CC#N
endpoint: mean survival time, dose: 5.0 mg/kg/injection, schedule: Q01DX001 (ip), vehicle: other
  T/C: 106 % of control
endpoint: mean survival time, dose: 10.0 mg/kg/injection, schedule: Q01DX001 (ip), vehicle: other
  T/C: 100 % of control
endpoint: mean survival time, dose: 20.0 mg/kg/injection, schedule: Q01DX001 (ip), vehicle: other
  T/C: 96 % of control
endpoint: mean survival time, dose: 40.0 mg/kg/injection, schedule: Q01DX001 (ip), vehicle: other
  T/C: 104 % of control

## Cc1ccc(S(=O)(=O)OCC(C)C)cc1
[4]
  T/C: 101 % of control
[5]
  T/C: 101 % of control
[6]
  T/C: 98 % of control

## O=N[O-].[Co].[N-]=C=S.[NH2-].[NH2-].[NH2-].[NH2-]
[7]
  T/C: 115 % of control
endpoint: mean survival time, dose: 25.0 mg/kg/injection, schedule: Q01DX009 (ip), vehicle: saline with Tween-80
  T/C: 115 % of control

## c1cc2c(ncn3nnnc23)[nH]1
endpoint: mean survival time, dose: 25.0 mg/kg/injection, schedule: Q01DX009 (ip), vehicle: Klucel (hydroxypropylcellulose) (HPC)
  T/C: 91 % of control
endpoint: mean survival time, dose: 50.0 mg/kg/injection, schedule: Q01DX009 (ip), vehicle: Klucel (hydroxypropylcellulose) (HPC)
  T/C: 99 % of control
endpoint: mean survival time, dose: 100.0 mg/kg/injection, schedule: Q01DX009 (ip), vehicle: Klucel (hydroxypropylcellulose) (HPC)
  T/C: 86 % of control

## CC(=O)NNC(=O)c1ccc(N(C)C)cc1
endpoint: mean survival time, dose: 12.5 mg/kg/injection, schedule: Q01DX009 (ip), vehicle: other
  T/C: 92 % of control
endpoint: mean survival time, dose: 25.0 mg/kg/injection, schedule: Q01DX009 (ip), vehicle: other
  T/C: 88 % of control
endpoint: mean survival time, dose: 50.0 mg/kg/injection, schedule: Q01DX009 (ip), vehicle: other
  T/C: 88 % of control
endpoint: mean survival time, dose: 100.0 mg/kg/injection, schedule: Q01DX009 (ip), vehicle: other
  T/C: 92 % of control
endpoint: mean survival time, dose: 200.0 mg/kg/injection, schedule: Q01DX009 (ip), vehicle: other
  T/C: 92 % of control

## C[CH2][Pb]([CH2]C)([CH2]C)[O]C(=O)c1cc(-c2ccccc2)nc2ccccc12
endpoint: mean survival time, dose: 1.56 mg/kg/injection, schedule: Q01DX009 (ip), vehicle: saline with Tween-80
  T/C: 98 % of control
endpoint: mean survival time, dose: 3.13 mg/kg/injection, schedule: Q01DX009 (ip), vehicle: saline with Tween-80
  T/C: 98 % of control
[8]
  T/C: 91 % of control and 104 % of control

## COc1cc2c(c(OC)c1OC)-c1c(cc3c(c1OC)OCO3)CC(C)C(C)(O)C2OC(=O)c1ccccc1 (stereo unspecified)
endpoint: median survival time, dose: 25.0 mg/kg/injection, schedule: Q01DX009 (ip), vehicle: saline + Tween-80 + alcohol
  T/C: 100 % of control
endpoint: median survival time, dose: 50.0 mg/kg/injection, schedule: Q01DX009 (ip), vehicle: saline + Tween-80 + alcohol
  T/C: 102 % of control
endpoint: median survival time, dose: 100.0 mg/kg/injection, schedule: Q01DX009 (ip), vehicle: saline + Tween-80 + alcohol
  T/C: 107 % of control
endpoint: median survival time, dose: 200.0 mg/kg/injection, schedule: Q01DX009 (ip), vehicle: saline + Tween-80 + alcohol
  T/C: 102 % of control
endpoint: median survival time, dose: 400.0 mg/kg/injection, schedule: Q01DX009 (ip), vehicle: saline + Tween-80 + alcohol
  T/C: 98 % of control

## Cc1cccc(C)c1NC(=O)/C=C/c1ccccc1
endpoint: mean survival time, dose: 100.0 mg/kg/injection, schedule: Q04DX002 (ip), vehicle: saline with Tween-80
  T/C: 94 % of control
endpoint: mean survival time, dose: 200.0 mg/kg/injection, schedule: Q04DX002 (ip), vehicle: saline with Tween-80
  T/C: 90 % of control
endpoint: mean survival time, dose: 400.0 mg/kg/injection, schedule: Q04DX002 (ip), vehicle: saline with Tween-80
  T/C: 98 % of control

## Nc1ccc(Cn2ccc3c4c(N)nc(N)nc4ccc32)cc1
endpoint: mean survival time, dose: 1.25 mg/kg/injection, schedule: Q01DX005 (ip), vehicle: saline with Tween-80
  T/C: 101 % of control
endpoint: mean survival time, dose: 1.25 mg/kg/injection, schedule: Q01DX009 (ip), vehicle: saline with Tween-80
  T/C: 101 % of control and 102 % of control and 108 % of control
endpoint: mean survival time, dose: 2.5 mg/kg/injection, schedule: Q01DX005 (ip), vehicle: saline with Tween-80
  T/C: 111 % of control
endpoint: mean survival time, dose: 5.0 mg/kg/injection, schedule: Q01DX005 (ip), vehicle: saline with Tween-80
  T/C: 110 % of control
endpoint: mean survival time, dose: 10.0 mg/kg/injection, schedule: Q01DX005 (ip), vehicle: saline with Tween-80
  T/C: 123 % of control
endpoint: mean survival time, dose: 20.0 mg/kg/injection, schedule: Q01DX005 (ip), vehicle: saline with Tween-80
  T/C: 106 % of control
endpoint: mean survival time, dose: 30.0 mg/kg/injection, schedule: Q01DX005 (ip), vehicle: saline with Tween-80
  T/C: 117 % of control
endpoint: median survival time, dose: 1.25 mg/kg/injection, schedule: Q01DX009 (ip), vehicle: saline with Tween-80
  T/C: 103 % of control and 108 % of control
endpoint: median survival time, dose: 2.5 mg/kg/injection, schedule: Q01DX009 (ip), vehicle: saline with Tween-80
  T/C: 118 % of control and 103 % of control
endpoint: median survival time, dose: 5.0 mg/kg/injection, schedule: Q01DX009 (ip), vehicle: saline with Tween-80
  T/C: 124 % of control and 103 % of control
endpoint: median survival time, dose: 10.0 mg/kg/injection, schedule: Q01DX009 (ip), vehicle: saline with Tween-80
  T/C: 113 % of control
endpoint: median survival time, dose: 20.0 mg/kg/injection, schedule: Q01DX009 (ip), vehicle: saline with Tween-80
  T/C: 152 % of control

## COc1ccc(C(=O)C(c2ccccc2)c2ccccc2)cc1
[1]
  T/C: 93 % of control
[2]
  T/C: 94 % of control
[3]
  T/C: 90 % of control

## OC(C1CCCCN1)C1CC(c2ccccc2)Nc2c(Cl)cc(Cl)cc21 (stereo unspecified)
endpoint: mean survival time, dose: 100.0 mg/kg/injection, schedule: Q04DX003 (ip), vehicle: saline
  T/C: 97 % of control

## Cc1cc(C(O)CNCCn2cnc3c2c(=O)n(C)c(=O)n3C)ccc1O (stereo unspecified)
endpoint: mean survival time, dose: 12.5 mg/kg/injection, schedule: Q01DX005 (ip), vehicle: water
  T/C: 103 % of control
endpoint: mean survival time, dose: 25.0 mg/kg/injection, schedule: Q01DX005 (ip), vehicle: water
  T/C: 100 % of control
endpoint: mean survival time, dose: 50.0 mg/kg/injection, schedule: Q01DX005 (ip), vehicle: water
  T/C: 97 % of control
endpoint: mean survival time, dose: 100.0 mg/kg/injection, schedule: Q01DX005 (ip), vehicle: water
  T/C: 100 % of control
endpoint: mean survival time, dose: 200.0 mg/kg/injection, schedule: Q01DX005 (ip), vehicle: water
  T/C: 100 % of control

## CCC1(O)C(=O)OCc2c1cc1n(c2=O)Cc2cc3ccc(C(=O)O)cc3nc2-1 (stereo unspecified)
endpoint: median survival time, dose: 10.0 mg/kg/injection, schedule: Q04DX002 (ip), vehicle: saline with Tween-80
  T/C: 108 % of control
endpoint: median survival time, dose: 10.0 mg/kg/injection, schedule: Q04DX002 (ip), vehicle: water
  T/C: 100 % of control
endpoint: median survival time, dose: 20.0 mg/kg/injection, schedule: Q04DX002 (ip), vehicle: saline with Tween-80
  T/C: 101 % of control
endpoint: median survival time, dose: 20.0 mg/kg/injection, schedule: Q04DX002 (ip), vehicle: water
  T/C: 109 % of control
endpoint: median survival time, dose: 40.0 mg/kg/injection, schedule: Q04DX002 (ip), vehicle: saline with Tween-80
  T/C: 108 % of control
endpoint: median survival time, dose: 40.0 mg/kg/injection, schedule: Q04DX002 (ip), vehicle: water
  T/C: 106 % of control
endpoint: median survival time, dose: 80.0 mg/kg/injection, schedule: Q04DX002 (ip), vehicle: saline with Tween-80
  T/C: 108 % of control
endpoint: median survival time, dose: 80.0 mg/kg/injection, schedule: Q04DX002 (ip), vehicle: water
  T/C: 106 % of control

## CC(C)(Br)C(=O)c1ccco1
endpoint: mean survival time, dose: 100.0 mg/kg/injection, schedule: Q04DX003 (ip), vehicle: saline sonified
  T/C: 101 % of control
endpoint: mean survival time, dose: 200.0 mg/kg/injection, schedule: Q04DX003 (ip), vehicle: saline sonified
  T/C: 102 % of control
endpoint: mean survival time, dose: 400.0 mg/kg/injection, schedule: Q04DX003 (ip), vehicle: saline sonified
  T/C: 95 % of control

## OCCCCCCl
endpoint: mean survival time, dose: 100.0 mg/kg/injection, schedule: Q01DX001 (ip), vehicle: saline
  T/C: 104 % of control
endpoint: mean survival time, dose: 200.0 mg/kg/injection, schedule: Q01DX001 (ip), vehicle: saline
  T/C: 98 % of control
endpoint: mean survival time, dose: 400.0 mg/kg/injection, schedule: Q01DX001 (ip), vehicle: saline
  T/C: 101 % of control

## CC(C)(C)OC(=O)NNC(=O)c1ccc([N+](=O)[O-])cc1
endpoint: mean survival time, dose: 6.25 mg/kg/injection, schedule: Q01DX009 (ip), vehicle: alcohol
  T/C: 172 % of control
endpoint: mean survival time, dose: 12.5 mg/kg/injection, schedule: Q01DX009 (ip), vehicle: alcohol
  T/C: 100 % of control
endpoint: mean survival time, dose: 25.0 mg/kg/injection, schedule: Q01DX009 (ip), vehicle: alcohol
  T/C: 97 % of control

## O=c1ssc2ccccc12
[1]
  T/C: 101 % of control
[2]
  T/C: 101 % of control
[3]
  T/C: 98 % of control

## O=C1C=CC(=O)N1c1ccc2c(c1)OCO2
[8]
  T/C: 91 % of control
[7]
  T/C: 86 % of control

## CCOC(=O)CC(=O)c1ccccc1
[4]
  T/C: 96 % of control
[5]
  T/C: 102 % of control
[6]
  T/C: 89 % of control

## COc1ccc(-c2c(O)c3c(OC)cc(OC)cc3oc2=O)cc1
endpoint: mean survival time, dose: 50.0 mg/kg/injection, schedule: Q01DX009 (ip), vehicle: saline with Tween-80
  T/C: 100 % of control
[4]
  T/C: 93 % of control
[5]
  T/C: 103 % of control

## CCCCN(C)C(=O)Oc1cccc(NC(=O)OC)c1
[4]
  T/C: 94 % of control
[5]
  T/C: 100 % of control

## O=C1c2cccc(Oc3ccccc3)c2C(=O)c2cccc(Oc3ccccc3)c21
[4]
  T/C: 94 % of control
[1]
  T/C: 96 % of control
[5]
  T/C: 89 % of control
[2]
  T/C: 97 % of control
[6]
  T/C: 98 % of control
[3]
  T/C: 94 % of control

## COC(=O)CCC(=O)Nc1ccccc1C(C)=O
[4]
  T/C: 101 % of control
[5]
  T/C: 104 % of control
[6]
  T/C: 106 % of control
